Experimental data taken from patent publication US5530097A, “Human cancer inhibitory peptide amides” (Arizona Board of Regents acting on behalf of Arizona State …, priority 1994, dated 1996).

What was measured:
Assay type in all cases: cell-based
A498 = test: NCI in vitro mini panel, human cancer cell line growth inhibition; details: Renal A498, 48 hrs
Procedure: (§1) ED50 (P388) and GI50 (HTCL) identify the drug dose which reduces the percent tumor/cell growth to 50%. There is no mathematical difference between ED50 and GI50, both of which are calculated using the same formula. The only difference is historical usage.
(§2) TGI, means "Total Growth Inhibition", and identifies the drug dose needed to yield zero percent growth, i.e. there are just as many cells at the end of the experiment as were present at the beginning. Whether just as many cells were killed as were produced (steady state), or no growth occurred (total inhibition) cannot be distinguished.
(§3) LC50, means "Lethal Concentration 50%", and identifies the drug concentration which reduces to one-half of the cells originally present at the beginning of the experiment.
(§4) Each drug is tested at five (5) doses: 100--10-1-0.1--0.01 μg/mL. Percent Growths are calculated for each dose. The two (or three) doses with growth values above, below, (or near to) 50% growth are used to calculate the ED50 /GI50 values using a linear regression computation. If no dose yields a growth value under 50%, the results are expressed as: ED50 >(highest dose). If no dose yields growth higher than 50% growth, then ED50 <(lowest dose). Similar calculations are performed for the TGI at 0% growth, and at -50% growth for the LC50.
(§5) At the start of each experiment, cells from the in vitro cell cultures are inoculated into the appropriate tubes or microtiter plates. One set of control tubes/plates is immediately counted to determine the number of cells at the start of the experiment. This is the "baseline count", or "Tzero reading". At the end of the experiment (48 hrs later), a second set of control tubes/plates is analyzed to determine the "Control Growth" value. The growth (or death) of cells relative to the initial quantity of cells is used to define the "Percent of Growth."
(§6) Similarly, the compounds disclosed herein have also been tested against an NCI in vitro mini panel. For each of six cell lines GI50, TGI, and LC50 amounts were calculated for each compound. Each compound was also tested against the PS-388 cell line and for this test an ED50 was calculated.
(§7) The protocols followed, for the NCI minipanel are, except for the number of cell lines, those established by M. R. Boyd Ph.D., and well known to those of ordinary skill in the art. The procedure followed for the test against PS-388 Leukemia is the same that was followed in the superseded NCI P-388 screening test, which is also well known to those having ordinary skill in the art.

KM20L2 = test: as above; details: Colon KM20L2, 48 hrs
Procedure: as §1, §2, §3, §4, §5, §6, §7

NCI-H460 = test: as above; details: Lung-NSC NCI-H460, 48 hrs
Procedure: as §1, §2, §3, §4, §5, §6, §7

OVCAR-3 = test: as above; details: Ovarian OVCAR-3, 48 hrs
Procedure: as §1, §2, §3, §4, §5, §6, §7

SF-295 = test: as above; details: CNS SF-295, 48 hrs
Procedure: as §1, §2, §3, §4, §5, §6, §7

SK-MEL-5 = test: as above; details: Melanoma SK-MEL-5, 48 hrs
Procedure: as §1, §2, §3, §4, §5, §6, §7

PS-388 = PS-388 mouse leukemia cell line test; details: Mouse Leukemia PS-388
Procedure: as §1, §4, §5, §6, §7

Substance	GI-50 (A498) [µg/mL]	LC-50 (A498) [µg/mL]	TGI (A498) [µg/mL]	GI-50 (KM20L2) [µg/mL]	LC-50 (KM20L2) [µg/mL]	TGI (KM20L2) [µg/mL]	GI-50 (NCI-H460) [µg/mL]	LC-50 (NCI-H460) [µg/mL]	TGI (NCI-H460) [µg/mL]	GI-50 (OVCAR-3) [µg/mL]	LC-50 (OVCAR-3) [µg/mL]	TGI (OVCAR-3) [µg/mL]	GI-50 (SF-295) [µg/mL]	LC-50 (SF-295) [µg/mL]	TGI (SF-295) [µg/mL]	GI-50 (SK-MEL-5) [µg/mL]	LC-50 (SK-MEL-5) [µg/mL]	TGI (SK-MEL-5) [µg/mL]	ED-50 (PS-388) [µg/mL]
L-Dolavalyl-L-Leucyl-N-methyl-(3R,4S,5S)-Dolaisoleuinyl-(2R,3R,4S)-Dolaproinyl-L-Methionine N-2-chlorophenylamide [8a]	0.0037	> 0.01	> 0.01	0.0018	> 0.01	> 0.01	0.0028	> 0.01	0.0079	0.00047	> 0.01	0.005	0.0034	> 0.01	> 0.01	0.042	> 0.01	> 0.01	0.00256
L-Dolavalyl-L-Leucyl-N-methyl-(3R,4S,5S)-Dolaisoleuinyl-(2R,3R,4S)-Dolaproinyl-L-Methionine N-2-benzothiazolamide [8e]	0.00087	> 0.01	> 0.01	0.00034	> 0.01	> 0.01	0.0032	> 0.01	> 0.01	0.00008	> 0.01	0.0029	0.0036	> 0.01	> 0.01	0.000051	> 0.01	> 0.01	0.000839
L-Dolavalyl-L-Leucyl-N-methyl-(3R,4S,5S)-Dolaisoleuinyl-(2R,3R,4S)-Dolaproinyl-L-Proline N-2-benzothiazolamide [8f]	> 0.01	> 0.01	> 0.01	0.0074	> 0.01	> 0.01	> 0.01	> 0.01	> 0.01	0.0033	> 0.01	> 0.01	> 0.01	> 0.01	> 0.01	0.0043	> 0.01	> 0.01	0.00405
L-Dolavalyl-L-Leucyl-N-methyl-(3R,4S,5S)-Dolaisoleuinyl-(2R,3R,4S)-Dolaproinyl-L-Phenylalanine N-3-chlorophenylamide [8c]	0.00042	> 0.01	> 0.01	0.00021	> 0.01	0.0012	0.0017	> 0.01	0.0054	0.000064	> 0.01	0.0011	0.00088	> 0.01	> 0.01	0.000042	> 0.01	0.00074	0.0000371
L-Dolavalyl-L-Leucyl-N-methyl-(3R,4S,5S)-Dolaisoleuinyl-(2R,3R,4S)-Dolaproinyl-N-2(2-chlorophenyl) ethylamide [10b]	0.00069	> 0.01	> 0.01	0.00031	> 0.01	0.0013	0.00033	> 0.01	0.0014	0.00031	> 0.01	0.0012	0.00042	> 0.01	> 0.01	0.00043	> 0.01	> 0.01	0.000357
L-Dolavalyl-L-Leucyl-N-methyl-(3R,4S,5S)-Dolaisoleuinyl-(2R,3R,4S)-Dolaproinyl-L-Phenylalanine N-4-chlorophenylamide [8d]	0.00018	> 0.01	0.0038	0.000015	> 0.01	0.0012	0.00032	> 0.01	0.0011	0.0000085	> 0.01	0.00023	0.00034	> 0.01	> 0.01	0.0000051	> 0.01	> 0.01	0.0000025
L-Dolavalyl-L-Leucyl-N-methyl-(3R,4S,5S)-Dolaisoleuinyl-(2R,3R,4S)-Dolaproinyl-N-2(4-chlorophenyl) ethylamide [10d]	0.0059	> 1	0.29	0.00011	> 1	0.011	0.0024	> 1	0.0097	0.00029	> 1	0.012	0.0017	> 1	0.1	0.00091	> 1	> 1	0.00586
L-Dolavalyl-L-Leucyl-N-methyl-(3R,4S,5S)-Dolaisoleuinyl-(2R,3R,4S)-Dolaproinyl-Dolaphenine [10a]	0.00026	> 0.01	0.0063	0.000034	> 0.01	0.001	0.00022	> 0.01	0.0007	0.000031	> 0.01	0.00051	0.00027	> 0.01	> 0.01	0.000058	> 0.01	> 0.01	0.0000312
L-Dolavalyl-L-Leucyl-N-methyl-(3R,4S,5S)-Dolaisoleuinyl-(2R,3R,4S)-Dolaproinyl-L-Methionine N-3-quinolinamide [8g]	0.00026	> 0.01	> 0.01	0.000019	> 0.01	0.0012	0.00032	> 0.01	0.0012	< 0.000006	> 0.01	0.001	0.00041	> 0.01	> 0.01	< 0.000006	> 0.01	> 0.01	0.000271
